Test results from EP0326331B1, “Substituted quinolines and cinnolines” (Dow AgroSciences LLC, priority 1988, dated 1989).

Key:
Assay type in all cases: in vivo
[1] = system: Twospotted spider mites (Tetranychus urticae Koch); assay: Mite/insect screen, SM; details: percent mortality, SAW; for mortality at 200 ppm / mortality at 400 ppm: Tetranychus urticae, read-out: SM RESULTS %; for mortality at 200 ppm: SM & MA RATE 200 PPM
Summary of the method: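 Activity is expressed as percent mortality at the indicated spray concentrations. Plants are sprayed to runoff on upper and lower leaf surfaces with aqueous dilutions of an acetone/alcohol emulsifiable formulation, then dried for one hour.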

[2] = system: melon aphids (Aphis gossypii Glover); assay: Mite/insect screen, MA; details: percent mortality, SAW; for mortality at 200 ppm / mortality at 400 ppm: Aphis gossypii, read-out: MA RESULTS %; for mortality at 200 ppm: SM & MA RATE 200 PPM
Summary of the method: (§1)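 Compounds dissolved in 50:50 acetone/alcohol containing sulfonate/nonionic emulsifier blends, then diluted with water to the indicated concentrations. Leaves sprayed on both surfaces to runoff at 10 psi and dried one hour. Percent mortality scored after standard exposure periods.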

[3] = system: Botrytis cinerea (gray mold); assay: Test 1 greenhouse foliar spray screen, gray mold on grape berries; details: disease control rating, spray on grape berries, 400 ppm (+++ at 100 ppm)
corn rootworm = assay: Mite/insect screen, CRW; details: percent mortality; for mortality at 12 ppm: CRW RATE 12.00 PPM; for mortality at 12 ppm / mortality at 24 ppm: read-out: CRW RESULTS %
Summary of the method: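 Compounds were dissolved in 50:50 acetone/alcohol containing sulfonate/nonionic emulsifier blends (23 g/L plus 13 g/L), then diluted with water to the test concentrations. Percent mortality was scored after standard exposure periods.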

[4] = system: Cercospora beticola (leaf spot); assay: Test 1 greenhouse foliar spray screen, leaf spot on sugar beet; details: disease control rating, foliar spray on sugar beet, 400 ppm (+++ at 100 ppm)
[5] = system: Septoria tritici (leaf blotch); assay: Test 1 greenhouse foliar spray screen, leaf blotch on wheat; details: disease control rating, foliar spray on wheat, 400 ppm (+++ at 100 ppm)
[6] = system: Puccinia recondita tritici (leaf rust); assay: Test 1 greenhouse foliar spray screen, leaf rust on wheat; details: disease control rating, foliar spray on wheat, 400 ppm (+++ at 100 ppm)
[7] = system: Venturia inaequalis (apple scab); assay: Test 1 greenhouse foliar spray screen, apple scab on apple seedling; details: disease control rating, foliar spray on apple seedling, 400 ppm (+++ at 100 ppm)
[8] = system: Erysiphe graminis tritici (powdery mildew); assay: Test 1 greenhouse foliar spray screen, powdery mildew on wheat; details: disease control rating, foliar spray on wheat, 400 ppm (+++ at 100 ppm)
[9] = system: Pyricularia oryzae (rice blast); assay: whole plant or invertebrate; details: disease control rating, foliar spray on rice, 400 ppm (+++ at 100 ppm)
[10] = system: southern armyworm (Spodopetra eridania Cramer); assay: Mite/insect screen, SAW; details: percent mortality, SAW; for mortality at 200 ppm / mortality at 400 ppm: Spodoptera eridania, read-out: SAW RESULTS %; for mortality at 200 ppm: SM & MA RATE 200 PPM
Summary of the method: as §1

[11] = system: Pseudoperonospora cubensis (downy mildew); assay: Test 1 greenhouse foliar spray screen, downy mildew on squash; details: for DOWN MDEW: disease control rating, foliar spray on squash, 400 ppm (+++ at 100 ppm)

FC(F)(F)c1cccc2c(NCCc3ccc(Br)cc3)ccnc12 [Example 13, N-[2-(4-bromophenyl)ethyl]-8-(trifluoromethyl)-4-quinolinamine]
mortality at 200 ppm [1]: 0%
mortality at 400 ppm ([1]; SM & MA RATE 400 PPM): 0%
mortality at 200 ppm [2]: 0%
mortality at 400 ppm ([2]; SM & MA RATE 400 PPM): 0%
GRAY MOLD [3]: - (0-19% control at 400 ppm)
mortality at 12 ppm (corn rootworm): 0%
mortality at 24 ppm (corn rootworm; CRW RATE 24.00 PPM): 0%
LEAF SPOT [4]: - (0-19% control at 400 ppm)
LEAF BLOT [5]: - (0-19% control at 400 ppm)
LEAF RUST [6]: ++ (90-100% control at 400 ppm)
APPL SCAB [7]: - (0-19% control at 400 ppm)
POWD MDEW [8]: - (0-19% control at 400 ppm)
RICE BLAST [9]: ++ (90-100% control at 400 ppm)
mortality at 200 ppm [10]: 0%
mortality at 400 ppm ([10]; SM & MA RATE 400 PPM): 0%
DOWN MDEW [11]: ++ (90-100% control at 400 ppm)

Cc1ccc2nccc(NCCc3ccc(Cl)cc3)c2c1 [Example 14, N-[2-(4-chlorophenyl)ethyl]-6-methyl-4-quinolinamine]
mortality at 200 ppm [1]: 0%
mortality at 400 ppm ([1]; SM & MA RATE 400 PPM): 0%
mortality at 200 ppm [2]: 0%
mortality at 400 ppm ([2]; SM & MA RATE 400 PPM): 0%
GRAY MOLD [3]: - (0-19% control at 400 ppm)
mortality at 12 ppm (corn rootworm): 0%
mortality at 24 ppm (corn rootworm; CRW RATE 24.00 PPM): 0%
LEAF SPOT [4]: +++ (90-100% control at 100 ppm)
LEAF BLOT [5]: - (0-19% control at 400 ppm)
LEAF RUST [6]: + (20-89% control at 400 ppm)
APPL SCAB [7]: - (0-19% control at 400 ppm)
POWD MDEW [8]: - (0-19% control at 400 ppm)
RICE BLAST [9]: + (20-89% control at 400 ppm)
mortality at 200 ppm [10]: 0%
mortality at 400 ppm ([10]; SM & MA RATE 400 PPM): 0%
DOWN MDEW [11]: +++ (90-100% control at 100 ppm)
activity against downy mildew ([11]; summary statement in the description): particularly excellent activity

Cc1cc(C)c2nccc(NCCc3ccc(Cl)cc3)c2c1 [Example 15, N-[2-(4-chlorophenyl)ethyl]-6,8-dimethyl-4-quinolinamine]
mortality at 200 ppm [1]: 0%
mortality at 400 ppm ([1]; SM & MA RATE 400 PPM): 0%
mortality at 200 ppm [2]: 0%
mortality at 400 ppm ([2]; SM & MA RATE 400 PPM): 0%
GRAY MOLD [3]: - (0-19% control at 400 ppm)
mortality at 12 ppm (corn rootworm): 0%
mortality at 24 ppm (corn rootworm; CRW RATE 24.00 PPM): 0%
LEAF SPOT [4]: +++ (90-100% control at 100 ppm)
LEAF BLOT [5]: - (0-19% control at 400 ppm)
LEAF RUST [6]: + (20-89% control at 400 ppm)
APPL SCAB [7]: + (20-89% control at 400 ppm)
POWD MDEW [8]: - (0-19% control at 400 ppm)
RICE BLAST [9]: + (20-89% control at 400 ppm)
mortality at 200 ppm [10]: 0%
mortality at 400 ppm ([10]; SM & MA RATE 400 PPM): 0%
DOWN MDEW [11]: +++ (90-100% control at 100 ppm)

COc1ccc2nccc(NCCc3ccc(Cl)cc3)c2c1 [Example 16, N-[2-(4-chlorophenyl)ethyl]-6-methoxy-4-quinolinamine]
mortality at 200 ppm [1]: 0%
mortality at 400 ppm ([1]; SM & MA RATE 400 PPM): 0%
mortality at 200 ppm [2]: 0%
mortality at 400 ppm ([2]; SM & MA RATE 400 PPM): 0%
GRAY MOLD [3]: - (0-19% control at 400 ppm)
mortality at 12 ppm (corn rootworm): 0%
mortality at 24 ppm (corn rootworm; CRW RATE 24.00 PPM): 0%
LEAF SPOT [4]: +++ (90-100% control at 100 ppm)
LEAF BLOT [5]: - (0-19% control at 400 ppm)
LEAF RUST [6]: + (20-89% control at 400 ppm)
APPL SCAB [7]: - (0-19% control at 400 ppm)
POWD MDEW [8]: - (0-19% control at 400 ppm)
RICE BLAST [9]: + (20-89% control at 400 ppm)
mortality at 200 ppm [10]: 0%
mortality at 400 ppm ([10]; SM & MA RATE 400 PPM): 0%
DOWN MDEW [11]: +++ (90-100% control at 100 ppm)

CC(CNc1ccnc2ccccc12)(c1ccccc1)c1ccccc1 [Example 34, N-(2,2-diphenylpropyl)-4-quinolinamine]
mortality at 200 ppm [1]: 0%
mortality at 200 ppm [2]: 0%
GRAY MOLD [3]: - (0-19% control at 400 ppm)
mortality at 12 ppm (corn rootworm): 0%
LEAF SPOT [4]: + (20-89% control at 400 ppm)
LEAF BLOT [5]: - (0-19% control at 400 ppm)
LEAF RUST [6]: ++ (90-100% control at 400 ppm)
APPL SCAB [7]: - (0-19% control at 400 ppm)
POWD MDEW [8]: + (20-89% control at 400 ppm)
RICE BLAST [9]: + (20-89% control at 400 ppm)
mortality at 200 ppm [10]: 0%
DOWN MDEW [11]: +++ (90-100% control at 100 ppm)

Fc1ccc(CCNc2ccnc3ccccc23)cc1 [Example 35, N-[2-(4-fluorophenyl)ethyl]-4-quinolinamine]
mortality at 200 ppm [1]: 0%
mortality at 200 ppm [2]: 0%
GRAY MOLD [3]: - (0-19% control at 400 ppm)
mortality at 12 ppm (corn rootworm): 0%
LEAF SPOT [4]: +++ (90-100% control at 100 ppm)
LEAF BLOT [5]: - (0-19% control at 400 ppm)
LEAF RUST [6]: + (20-89% control at 400 ppm)
APPL SCAB [7]: - (0-19% control at 400 ppm)
POWD MDEW [8]: + (20-89% control at 400 ppm)
RICE BLAST [9]: + (20-89% control at 400 ppm)
mortality at 200 ppm [10]: 0%
DOWN MDEW [11]: +++ (90-100% control at 100 ppm)

COc1ccc(CCNc2ccnc3c(F)cccc23)cc1 [Example 36, 8-fluoro-N-[2-(4-methoxyphenyl)ethyl]-4-quinolinamine]
mortality at 200 ppm [1]: 0%
mortality at 400 ppm ([1]; SM & MA RATE 400 PPM): 0%
SM RESULTS % ([1]; SM & MA RATE 400 PPM): 0%
mortality at 200 ppm [2]: 0%
mortality at 400 ppm ([2]; SM & MA RATE 400 PPM): 0%
MA RESULTS % ([2]; SM & MA RATE 400 PPM): 0%
GRAY MOLD [3]: - (0-19% control at 400 ppm)
mortality at 12 ppm (corn rootworm): 0%
CRW RESULTS % (corn rootworm; CRW RATE 24.00 PPM): 0%
mortality at 24 ppm (corn rootworm; CRW RATE 24.00 PPM): 0%
LEAF SPOT [4]: +++ (90-100% control at 100 ppm)
LEAF BLOT [5]: +++ (90-100% control at 100 ppm)
LEAF RUST [6]: +++ (90-100% control at 100 ppm)
APPL SCAB [7]: - (0-19% control at 400 ppm)
POWD MDEW [8]: + (20-89% control at 400 ppm)
RICE BLAST [9]: +++ (90-100% control at 100 ppm)
mortality at 200 ppm [10]: 0%
mortality at 400 ppm ([10]; SM & MA RATE 400 PPM): 0%
SAW RESULTS % ([10]; SM & MA RATE 400 PPM): 0%
DOWN MDEW [11]: +++ (90-100% control at 100 ppm)

COc1ccc(CCNc2ccnc3c(F)cccc23)cc1OC [Example 38, N-[2-(3,4-dimethoxyphenyl)ethyl]-8-fluoro-4-quinolinamine]
mortality at 200 ppm [1]: 0%
mortality at 400 ppm ([1]; SM & MA RATE 400 PPM): 0%
mortality at 200 ppm [2]: 0%
mortality at 400 ppm ([2]; SM & MA RATE 400 PPM): 0%
GRAY MOLD [3]: - (0-19% control at 400 ppm)
mortality at 12 ppm (corn rootworm): 0%
mortality at 24 ppm (corn rootworm; CRW RATE 24.00 PPM): 0%
LEAF SPOT [4]: + (20-89% control at 400 ppm)
LEAF BLOT [5]: - (0-19% control at 400 ppm)
LEAF RUST [6]: ++ (90-100% control at 400 ppm)
APPL SCAB [7]: - (0-19% control at 400 ppm)
POWD MDEW [8]: + (20-89% control at 400 ppm)
RICE BLAST [9]: - (0-19% control at 400 ppm)
mortality at 200 ppm [10]: 0%
mortality at 400 ppm ([10]; SM & MA RATE 400 PPM): 0%
DOWN MDEW [11]: +++ (90-100% control at 100 ppm)

Fc1cc(F)c2nccc(NCCc3ccc(Cl)cc3)c2c1 [Example 41, N-[2-(4-chlorophenyl)ethyl]-6,8-difluoro-4-quinolinamine]
mortality at 200 ppm [1]: 0%
mortality at 400 ppm ([1]; SM & MA RATE 400 PPM): 0%
mortality at 200 ppm [2]: 0%
mortality at 400 ppm ([2]; SM & MA RATE 400 PPM): 0%
GRAY MOLD [3]: - (0-19% control at 400 ppm)
mortality at 12 ppm (corn rootworm): 0%
mortality at 24 ppm (corn rootworm; CRW RATE 24.00 PPM): 0%
LEAF SPOT [4]: +++ (90-100% control at 100 ppm)
LEAF BLOT [5]: + (20-89% control at 400 ppm)
LEAF RUST [6]: +++ (90-100% control at 100 ppm)
APPL SCAB [7]: - (0-19% control at 400 ppm)
POWD MDEW [8]: + (20-89% control at 400 ppm)
RICE BLAST [9]: ++ (90-100% control at 400 ppm)
mortality at 200 ppm [10]: 80%
mortality at 400 ppm ([10]; SM & MA RATE 400 PPM): 40%
DOWN MDEW [11]: ++ (90-100% control at 400 ppm)
